Measurements reported in patent US9895390B2, “Methods and assays for combination treatment of cancer” (CHILDREN'S MEDICAL CENTER CORPORATION, priority 2012, dated 2018).

Columns and labels:
[1] = system: EZH2 and H3K27me3; assay: Western Blot for EZH2 and H3K27me3 on whole cell extracts; format: cell-based, human; conditions: 1 μM DZNep, 4 days
Experimental: For Western blotting, 25 μg of protein extract per sample was denatured with heat and reducing agents, separated on a 4-12% acrylimide gel and transferred to nitrocellulose. Antibodies used for Western blotting were: EZH2 (Cell Signalling), β-actin (AbCAM) and H3K27me3 (Upstate).
Whole cell extracts were made in RIPA buffer (0.5% Deoxycholate, 1% IGEPAL-CA630, 0.1% sodium dodecyl sulfate, 150 mM NaCL, 50 mM Tris-8.1), lysates were cleared by centrifugation, and protein concentrations were quantified with the Pierce BCA Protein Assay Kit (Thermo). For Western blotting, 25 μg of protein extract per sample was denatured with heat and reducing agents, separated on a 4-12% acrylimide gel (BioRad) and transferred to nitrocellulose (GE Healthcare). Antibodies used for Western blotting were: EZH2 (clone D2C9; Cell Signaling; 1:200), Histone H3 (polyclonal; AbCAM ab1791; 1:2000) and H3K27me3 (polyclonal; Millipore 07-449; 1:1000) all incubated overnight at 4° C. Secondary antibody, anti-rabbit-HRP (Santa Cruz sc-2313; 1:5,000), was incubated for 1 hour at room temperature. After washing, chemi-luminescence was visualized with Western Lightning Plus-ECL (PerkinElmer) and exposure onto KODAK BioMax XAR™ film.

[2] = system: human NSCLC lines; assay: Growth rates over 10 day time-course (Cell Titer Glo), 12 cell lines; format: cell-based; conditions: 1 μM DZNep, 10 day time-course
Experimental: (§1) FIG. 2A depicts a Western Blot for EZH2 and H3K27me3 performed on whole cell extracts 4 days after indicated treatments, β-actin shown as a loading control. FIG. 2B depicts a graph of the growth rates of matched shGFP and shGFP cells treated with 1 μM DZNep and assayed by Cell Titer Glo at days 3, 5, 7, and 10 post plating at equal densities. Average luminescence ±s.e.m. for 3 replicate wells is shown based on when each shGFP cell line reached logarithmic growth, * indicates p<0.03. FIG. 2C depicts a graph of the response to Etoposide. Cell lines were plated at equal densities and treated a range of etoposide doses with or without 1 μM DZNep. On the 4th day, cell viability was measured using Cell Titer Glo and the percent survival at each dose of etoposide was calculated. Dose response curves were generated for the no DZNep and DZNep treated cells using the GraphPad prism software and IC50s were extrapolated. The fold change±s.e.m. of etoposide IC50 in response to DZNep is plotted, n=4 biological replicates, * indicates p<0.05. Cell lines with mutations in Brg1, EGFR and B-Raf are indicated.

[3] = system: BRG1 mutant and BRG1 wild-type cell lines; assay: Anaphase bridge analysis; format: cell-based, human
Experimental: To quantify anaphase bridges, cells were grown on 4-well cultures slides (Lab Tek II). Adherent cells were fixed with 4% paraformaldehyde for 20 min, washed and stained with Vectashield™ with 4′,6-diamidino-2-phenylindole (DAPI; Vector Labs). Images were taken of each anaphase structure, and the number of anaphases with bridges over the total number of anaphases (between 11 and 34 total anaphases per well of a 4-well chamber slide) was recorded for each of three or more independent biological replicate experiments.

[4] = system: Calu6; assay: Growth rate over 10 day time-course (Cell Titer Glo); format: cell-based, human; conditions: Calu6, 1 μM DZNep, 10 day time-course
Experimental: as §1

[5] = system: H157; assay: as above; format: cell-based, human; conditions: H157, 1 μM DZNep, 10 day time-course
Experimental: as §1

[6] = system: HCC95; assay: as above; format: cell-based, human; conditions: HCC95, 1 μM DZNep, 10 day time-course
Experimental: as §1

[7] = system: H441; assay: as above; format: cell-based, human; conditions: H441, 1 μM DZNep, 10 day time-course
Experimental: as §1

[8] = system: HCC15; assay: as above; format: cell-based, human; conditions: HCC15, 1 μM DZNep, 10 day time-course
Experimental: as §1

[9] = system: H460; assay: Etoposide dose response curves with or without DZNep, stably transduced lines; format: cell-based, human; conditions: H460 control cells
Experimental: (§2) Cell lines were dissociated, counted and plated at 5000 cells per well in flat bottom opaque tissue culture treated 96 well plates (CytoOne). Edge wells were filled with PBS. The following day, 2× drug diluted in media was added to each well such that the well then contained 100 ul media with 1× drug concentration. After 4 days, Cell Titer Glo™ (Promega) was added and luminescence was read on a BioTec plate reader to determine relative cell number in each well. Data were averaged for triplicate or quadruplicate technical replicates, normalized to the untreated wells and input into GraphPad Prism software to extrapolate IC50.
as §2, with “concentration at the following doses: etoposide; 0, 0.1, 1, 3, 5, 7, 10, 50, 100, 500 μM, cisplatin; 0, 0.1, 1, 5, 10, 30, 70, 100, 500 μM, or doxorubicin; 0, 0.01, 0.1, 0.5, 1, 3, 5, 7, 10, 50 μM.” for “concentration.”, “CELLTITER-GLO™” for “Cell Titer Glo™”, “replicates and” for “replicates,”, “wells. […]” for “wells and input into GraphPad Prism software to extrapolate IC50.”

[10] = system: HCC15; assay: as above; format: cell-based, human; conditions: HCC15 control cells
Experimental: as §2
as §2, with “concentration at the following doses: etoposide; 0, 0.1, 1, 3, 5, 7, 10, 50, 100, 500 μM, cisplatin; 0, 0.1, 1, 5, 10, 30, 70, 100, 500 μM, or doxorubicin; 0, 0.01, 0.1, 0.5, 1, 3, 5, 7, 10, 50 μM.” for “concentration.”, “CELLTITER-GLO™” for “Cell Titer Glo™”, “replicates and” for “replicates,”, “wells. […]” for “wells and input into GraphPad Prism software to extrapolate IC50.”

Nc1nccc2c1ncn2[C@@H]1C=C(CO)[C@@H](O)[C@H]1O [DZNep, 3-Deazaneplanocin A]
EZH2 protein abundance and H3K27me3 catalytic mark [1]: effectively reduced
cell lines with reduced growth rates [2]: 11 out of 12
anaphase bridging when challenged with DZNep ([3]; BRG1 mutant cell lines): increased anaphase bridging
anaphase bridging when challenged with DZNep ([3]; BRG1 wild-type lines): significant decrease
anaphase bridging (TopoII dysfunction) in response to DZNep ([3]; HCC15 control line): increase in TopoII dysfunction
decrease in proliferation [4]: 2.1 fold
decrease in proliferation [5]: 2.1 fold
change in proliferation [6]: increased proliferation
decrease in proliferation [7]: 2.1 fold
decrease in proliferation [8]: 3.2 fold
increase in etoposide IC50 in response to DZNep [9]: 2 fold
decrease in etoposide IC50 in response to DZNep [10]: 2 fold
